Test results reported in patent US12528768B2, “Crystalline form of a 7H-benzo[7]annulene-2-carboxylic acid derivative” (Sanofi, priority 2019, dated 2026).

How the values were obtained:
[1] = Physical stability of the solid form (exposure to heat, moisture, nitrogen or ambient conditions, followed by XRPD); format: physicochemical; conditions: for result of exposure to heat and/or moisture: heat (for example 40° C.) and/or moisture; for stability of the solid form (in words): overall judgement
Protocol: II. X-Ray Powder Diffraction (XRPD) Analyses were carried out at room temperature on a Brucker D4 Endeavor instrument using the Bragg-Brentano parafocusing geometry. A sealed copper anode X-ray tube was used (λ, CuKα average=1.54178 Å). A LynxEye linear detector completed the setup. A counting time of few seconds per step in an angular range of from few 2-Theta degrees to several dozen 2-Theta degrees with a 0.016° step size in 20 was used for each sample analysis. For each experiment, the powder was deposited onto the surface of a sample holder.

[2] = Water sorption isotherms using Dynamic Vapor Sorption (DVS); format: physicochemical; conditions: for Change in Mass / Change in Mass (water uptake): DVS sorption step, 25° C.; for Change in Mass (water uptake): target RH 95%; for weight gain determined by DVS: about 25° C. (±0.2° C.)
Protocol: III. Water Sorption Isotherms Using Dynamic Vapor Sorption (DVS) Experiments were performed on DVS automated gravimetric vapor sorption analyzer (Surface Measurement Systems Ltd., London, UK). Uptake and loss of water by the sample were gravimetrically measured with an ultra-microbalance with a mass resolution of ±0.1 μg. A controlled relative humidity was generated by mixing different proportions of dry and water saturated carrier gas streams. The temperature was maintained constant at 25.0±0.2° C., by enclosing the entire system in a temperature controlled incubator. A sample size between 5 and 20 mg was used. Prior to being exposed to any water vapor the sample was dried at 0% relative humidity (RH) to remove most surface water present and establish a dry, baseline mass. Next, the sample was exposed to an increasing relative humidity raised by steps of 5% RH, from 0 to 95% RH.

| Structure (SMILES) | stability of the solid form (in words) [1] | Change in Mass ([2]; target RH 0%) | Change in Mass ([2]; target RH 10%) | Change in Mass ([2]; target RH 20%) | Change in Mass ([2]; target RH 30%) | Change in Mass ([2]; target RH 40%) | Change in Mass ([2]; target RH 50%) | Change in Mass ([2]; target RH 60%) | Change in Mass ([2]; target RH 70%) | Change in Mass ([2]; target RH 80%) | Change in Mass ([2]; target RH 90%) | also measured |
| --- | --- | --- | --- | --- | --- | --- | --- | --- | --- | --- | --- | --- |
| O=C(O)c1ccc2c(c1)CCCC(c1ccc(Cl)cc1Cl)=C2c1ccc(O[C@H]2CCN(CCCF)C2)cc1 [anhydrate crystalline Form 1, 6-(2,4-dichlorophenyl)-5-[4-[(3S)-1-(3-fluoropropyl)pyrrolidin-3-yl]oxyphenyl]-8,9-dihydro-7H-benzo[7]annulene-2-carboxylic acid] | metastable | 0.00% | 0.20% | 0.54% | 0.99% | 1.54% | 2.09% | 2.57% | 2.99% | 3.36% | 3.76% | Change in Mass (water uptake) [2]: 4.07%; weight gain determined by DVS ([2]; at 95% relative humidity): 4.07 weight % |
| O=C(O)c1ccc2c(c1)CCCC(c1ccc(Cl)cc1Cl)=C2c1ccc(O[C@H]2CCN(CCCF)C2)cc1 [2-propanol solvate] | – | – | – | – | – | – | – | – | – | – | – | transformation upon heating ([1]; upon heating): transforms into anhydrate Form 3 which itself generally transforms into anhydrate Form 2 |
| O=C(O)c1ccc2c(c1)CCCC(c1ccc(Cl)cc1Cl)=C2c1ccc(O[C@H]2CCN(CCCF)C2)cc1 [1,4-dioxane solvate] | physically unstable | – | – | – | – | – | – | – | – | – | – | conversion at room temperature ([1]; room temperature, one week): converts at room temperature to an unknown poorly crystallized solid form |
| O=C(O)c1ccc2c(c1)CCCC(c1ccc(Cl)cc1Cl)=C2c1ccc(O[C@H]2CCN(CCCF)C2)cc1 [DCM solvate] | unstable | – | – | – | – | – | – | – | – | – | – | result of exposure to heat and/or moisture [1]: formation of the anhydrate Form 1; result of exposure to heat and/or N2 ([1]; heat and/or N2): formation of the anhydrate Form 4 |
| O=C(O)c1ccc2c(c1)CCCC(c1ccc(Cl)cc1Cl)=C2c1ccc(O[C@H]2CCN(CCCF)C2)cc1 [THF solvate] | unstable | – | – | – | – | – | – | – | – | – | – | result of exposure to heat and/or moisture [1]: formation of the anhydrate form 1 |
| O=C(O)c1ccc2c(c1)CCCC(c1ccc(Cl)cc1Cl)=C2c1ccc(O[C@H]2CCN(CCCF)C2)cc1 [acetone solvate] | physically unstable | – | – | – | – | – | – | – | – | – | – | result of exposure to ambient conditions or dry nitrogen [1]: converts to low crystalline materials |
| O=C(O)c1ccc2c(c1)CCCC(c1ccc(Cl)cc1Cl)=C2c1ccc(O[C@H]2CCN(CCCF)C2)cc1 [compound of formula (1), 6-(2,4-dichlorophenyl)-5-[4-[(3S)-1-(3-fluoropropyl)pyrrolidin-3-yl]oxyphenyl]-8,9-dihydro-7H-benzo[7]annulene-2-carboxylic acid] | – | – | – | – | – | – | – | – | – | – | – | storage requirement for stability over time ([1]; amorphous form, industrial scale handling): needs storage under refrigerated conditions to maintain its stability over time |

Continued, in another order:

| stability of the solid form (in words) [1] | Change in Mass ([2]; target RH 0%) | Change in Mass ([2]; target RH 10%) | Change in Mass ([2]; target RH 20%) | Change in Mass ([2]; target RH 30%) | Change in Mass ([2]; target RH 40%) | Change in Mass ([2]; target RH 50%) | Change in Mass ([2]; target RH 60%) | Change in Mass ([2]; target RH 70%) | Change in Mass ([2]; target RH 80%) | Change in Mass ([2]; target RH 90%) | Structure (SMILES) | also measured |
| --- | --- | --- | --- | --- | --- | --- | --- | --- | --- | --- | --- | --- |
| unstable | – | – | – | – | – | – | – | – | – | – | O=C(O)c1ccc2c(c1)CCCC(c1ccc(Cl)cc1Cl)=C2c1ccc(O[C@H]2CCN(CCCF)C2)cc1 [ethanol solvate] | result of exposure to heat and/or moisture [1]: formation of the anhydrate Form 1 |
| metastable | 0.00% | 0.78% | 1.13% | 1.29% | 1.46% | 2.21% | 2.46% | 2.62% | 2.73% | 2.84% | O=C(O)c1ccc2c(c1)CCCC(c1ccc(Cl)cc1Cl)=C2c1ccc(O[C@H]2CCN(CCCF)C2)cc1 [anhydrate crystalline Form 3, 6-(2,4-dichlorophenyl)-5-[4-[(3S)-1-(3-fluoropropyl)pyrrolidin-3-yl]oxyphenyl]-8,9-dihydro-7H-benzo[7]annulene-2-carboxylic acid] | Change in Mass (water uptake) [2]: 2.92%; weight gain determined by DVS ([2]; at 95% relative humidity): 2.92 weight % |
| metastable | 0.00% | 0.07% | 0.21% | 0.34% | 0.43% | 0.51% | 0.58% | 0.64% | 0.71% | 0.75% | O=C(O)c1ccc2c(c1)CCCC(c1ccc(Cl)cc1Cl)=C2c1ccc(O[C@H]2CCN(CCCF)C2)cc1 [anhydrate crystalline Form 4, 6-(2,4-dichlorophenyl)-5-[4-[(3S)-1-(3-fluoropropyl)pyrrolidin-3-yl]oxyphenyl]-8,9-dihydro-7H-benzo[7]annulene-2-carboxylic acid] | weight gain determined by DVS ([2]; at 90% relative humidity): 0.75 weight % |
| stable | 0% | 0.01% | 0.02% | 0.02% | 0.03% | 0.03% | 0.04% | 0.05% | 0.05% | 0.06% | O=C(O)c1ccc2c(c1)CCCC(c1ccc(Cl)cc1Cl)=C2c1ccc(O[C@H]2CCN(CCCF)C2)cc1 [anhydrate crystalline Form 2, 6-(2,4-dichlorophenyl)-5-[4-[(3S)-1-(3-fluoropropyl)pyrrolidin-3-yl]oxyphenyl]-8,9-dihydro-7H-benzo[7]annulene-2-carboxylic acid] | hygroscopicity (in words) ([2]; 0 to 95% relative humidity, about 25° C., European pharmacopoeia wording): no hygroscopicity; Change in Mass (water uptake) [2]: 0.06%; conversion after exposure to moisture ([1]; exposure to moisture): does not convert to another crystalline form; effect of temperature variations on crystal structure ([1]; exposure to temperature variations): does not alter the crystal structure before its melting; stability under ambient conditions of temperature and pressure ([1]; room temperature and ambient pressure): thermodynamically more stable |
| physically unstable | – | – | – | – | – | – | – | – | – | – | O=C(O)c1ccc2c(c1)CCCC(c1ccc(Cl)cc1Cl)=C2c1ccc(O[C@H]2CCN(CCCF)C2)cc1 [butanol solvate] | result of exposure to ambient conditions or dry nitrogen [1]: converts to an amorphous form |
